From patent US20070065850A1, “Method for diagnosis of heart failure” (OSAKA UNIVERSITY, priority 2005, published 2007)
d = 2'-deoxy (DNA)

Legend:
[1] = test system: neonatal rat cardiac myocytes; experiment: Apoptotic cell assay (TUNEL); assay type: cell-based
Description: The terminal deoxynucleotidyl transferase-mediated dUTP nick end labeling (TUNEL) assay was performed as described previously (7). Forty eight hours after the treatment of neonatal rat cardiac myocytes with tunicamycin (Sigma-Aldrich), cells were subjected to TUNEL staining. The TUNEL-positive cardiac myocytes counted in DAPI-positive cardiac myocytes (n=100, 5 times) were expressed as a percentage.
(§1) The inventors designed 3 different short interfering RNAs (siRNA) with 3′ dTdT overhangs to knock down CHOP mRNA (CHOP siRNA-1: 5′-CCUUCACUACUCUUGACCC-3′ (SEQ ID NO. 1), siRNA-2: 5′-GAUCAAGGAAGAACUAGGA-3′ (SEQ ID NO. 2), siRNA-3: 5′-GGAGCAGGAGAAUGAGAGG-3′(SEQ ID NO. 3) and ordered Dharmacon Inc. to synthesize them. After rat cardiac myocytes were isolated, they were incubated in Dulbecco's modified Eagle's medium (Invitrogen Corporation) Opti-MEM (Invitrogen Corporation), siRNA oligonucleotides (CHOP siRNA 1-3) (60 nM) and Optifect (Invitrogen Corporation) were added on the day of cardiac myocyte isolation. As a negative control, cells were transfected with siRNA against firefly luciferase from Photinus pyralis (GL2 siRNA) (15). Messenger RNA and protein levels of CHOP were measured 24 and 48 hrs after the transfection of CHOP siRNA, respectively.

[2] = test system: cultured neonatal rat cardiac myocytes; experiment: CHOP expression by real-time quantitative RT-PCR after treatment with pharmacological ER stress inducers; assay type: cell-based; settings: for CHOP/GAPDH: cultured cardiac myocytes 48 hours after treatment with ER stress inducer, untreated 1.0, mean±SEM
Description: Primary cultures of cardiac myocytes were prepared from neonatal rat hearts as described previously (13). All procedures were performed in accordance with the guidline of Osaka University School of Medicine with regard to animal care and the “Position of the American Heart Association on Research Animal Use.”
(§2) RT-PCR of human and rat heart samples was performed according to the Omniscript Reverse Transcription handbook (QIAGEN Inc.). The human and rat primers and probes used for quantification of BNP, GRP78, CHOP, and GAPDH were all designed according to the manufacturer's protocol (Applied Biosystems, https://www.appliedbiosystems.com/catalog/). Real-time quantitative RT-PCR was performed with an ABI PRISM 7700 Sequence Detection System (Applied Biosystems) by the relative standard curve method. The target amount was determined from the relative standard curves constructed with serial dilutions of the control total RNA.

cardiac myocytes = experiment: MTT assay (cell viability); assay type: cell-based, rat; settings: tunicamycin for 48 hours
Description: Cardiac myocytes were treated with tunicamycin for 48 hours, after which cell viability was assessed by MTT assay according to the manufacturer's instructions (Cell Counting Kit-8, Wako Pure Chemical Industries, Ltd.). The percentage of viable cells was determined by taking the value for untreated cells as 100%.
as §1

CHOP mRNA = CHOP mRNA knockdown by siRNA transfection (RNA interference), real-time quantitative RT-PCR; assay type: cell-based, rat; settings: siRNA 60 nM, mean±SEM
Description: as §2
as §1, with “As a negative control, cells were transfected with siRNA against firefly luciferase from Photinus pyralis (GL2 siRNA) (15).” left out, “respectively. […]” for “respectively.”

CHOP = CHOP protein level by immunoblotting after siRNA transfection; assay type: cell-based, rat; settings: cardiac myocytes treated with tunicamycin; protein measured 48 hrs after transfection; actin internal control
Description: Immunoblotting was performed as described previously (13). Primary antibodies targeting CHOP (sc-793) and actin (sc-1615) were purchased from Santa Cruz Biotechnology. Forty eight hours after the treatment of neonatal rat cardiac myocytes with tunicamycin (Sigma-Aldrich), cardiac myocytes were harvested.
as §1

tunicamycin
Number of TUNEL-positive cardiac myocytes ([1]; 48 hours after treatment with tunicamycin, vs. no treatment): increased | CHOP expression (real-time quantitative RT-PCR) ([2]; cultured neonatal rat cardiac myocytes treated with tunicamycin, normalized for GAPDH, compared with 0 hour): increase | Cell viability (MTT assay) (cardiac myocytes; untreated cells as 100%): decreased

C/C=C(/C)C(=O)O[C@H]1C(C)=C2[C@H]([C@@H]1OC(=O)CCCCCCC)[C@@](C)(OC(C)=O)C[C@H](OC(=O)CCC)[C@@]1(O)[C@H]2OC(=O)[C@@]1(C)O [thapsigargin]
CHOP/GAPDH [2]: 19.0±0.3

C[C@H]1CCC/C=C/[C@@H]2C[C@H](O)C[C@H]2[C@H](O)/C=C/C(=O)O1 [brefeldin A]
CHOP/GAPDH [2]: 8.1±0.7

CHOP siRNA-2: siRNA with 3′ dTdT overhangs to knock down CHOP mRNA: 5′-GAUCAAGGAAGAACUAGGA-3′ (SEQ ID NO. 2) (RNA, 3' dTdT, backbone not given here)
Effect of siRNA on the tunicamycin-induced increase of TUNEL-positive cardiac myocytes ([1]; tunicamycin 48 hours, siRNA 60 nM): attenuated | CHOP/GAPDH after transfection of siRNA, induction by brefeldin A (CHOP mRNA; brefeldin A alone 8.1±0.7): 2.2±0.8 | CHOP/GAPDH after transfection of siRNA, induction by thapsigargin (CHOP mRNA; thapsigargin alone 19.0±0.3): 2.1±1.0 | Effect of siRNA on the tunicamycin-induced decrease of cell viability (cardiac myocytes; siRNA 60 nM): attenuated | protein level of CHOP after transfection of siRNA (CHOP): almost completely suppressed
